Where only a bound is given, the exact number is not on record here.

The values below come from ChEMBL document CHEMBL4359821, “Identify liver X receptor β modulator building blocks by developing a fluorescence polarization-based competition assay” (Eur J Med Chem, 2019).

For experiment [1], the target named is T1, Oxysterols receptor LXR-beta (Homo sapiens, UniProt P55055). Briefly: Binding affinity to recombinant human LXRbeta-LBD expressed in Escherichia coli BL21 (DE3) assessed as inhibitory constant incubated for 30 mins by fluorescence polarization binding assay. Background: Fluorescence polarisation rises when a labelled molecule tumbles more slowly, as on binding a larger partner.
T1 sequence (P55055 whole entry, the tested form may be a part): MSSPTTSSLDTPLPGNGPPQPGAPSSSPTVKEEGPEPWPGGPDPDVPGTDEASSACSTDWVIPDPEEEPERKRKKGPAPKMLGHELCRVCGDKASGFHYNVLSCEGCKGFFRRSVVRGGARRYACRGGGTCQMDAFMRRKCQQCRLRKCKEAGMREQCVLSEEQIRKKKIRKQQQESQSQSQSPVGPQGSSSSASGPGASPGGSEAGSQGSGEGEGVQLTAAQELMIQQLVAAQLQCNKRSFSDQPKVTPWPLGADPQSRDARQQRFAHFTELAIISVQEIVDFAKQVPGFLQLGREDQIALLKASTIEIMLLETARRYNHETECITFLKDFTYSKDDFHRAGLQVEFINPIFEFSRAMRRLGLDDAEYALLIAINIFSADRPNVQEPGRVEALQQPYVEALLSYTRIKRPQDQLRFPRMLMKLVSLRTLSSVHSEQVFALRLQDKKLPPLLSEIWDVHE

Experiment [2] concerns the target T1, Oxysterols receptor LXR-beta. Briefly: Agonist activity at recombinant human LXRbeta-LBD expressed in Escherichia coli BL21 (DE3) assessed as peptide D22 recruitment fluorescence polarization binding assay.
For experiment [3] the target is unchanged. As to the kind of experiment: Binding affinity to recombinant human LXRbeta-LBD expressed in Escherichia coli BL21 (DE3) assessed as dissociation constant incubated for 30 mins by fluorescence polarization binding assay.

Turning to `Oc1ccc(Sc2ccc(O)cc2)cc1`, in experiment [1], the Ki came out at 68 µM.

Turning to `Oc1cccc(Cl)c1`, in experiment [2], the EC50 amounted to 519 µM. Further, the Ki in experiment [1] was 184 µM.

As to `COC(=O)c1ccc2cc[nH]c2c1`, the Ki in experiment [1] came to 302 µM.

In the case of `CCOC(=O)c1ccc(CN(Cc2ccc(-c3cccc(S(C)(=O)=O)c3)cc2)S(=O)(=O)c2c(C)cc(C)cc2C)o1`, the Ki in experiment [1] was determined as 0.352 µM.

On to `CCOC(=O)c1cn2nc[nH]c(=O)c2c1C(C)C`, for which, in experiment [2], the EC50 turned out to be 19 µM. In addition, in experiment [1], the inhibition constant (Ki) is 140 µM.

Turning to `Brc1nn(C2CCCCO2)c2ncccc12` (stereo unspecified), the Ki in experiment [1] amounted to 209 µM.

Regarding `O=C1Nc2ccc(Br)cc2CO1`, in experiment [1], the Ki is over 500 µM.

For `CC(=O)c1c(C)ccc2ccccc12`, in experiment [1], the Ki was found to be 153 µM.

Regarding `COc1ccc(OC)c(Cl)c1`, the EC50 in experiment [2] is 1030 µM. Further, the Ki in experiment [1] amounted to 476 µM.

Consider `CC(C)(C)OC(=O)N1Cc2cn[nH]c2C1`, for which the Ki in experiment [1] was 225 µM.

Take `CC(C)[C@@H]1CN(c2ccc(CO)c(S(C)(=O)=O)c2)CCN1c1ncc(COC(=O)CCCCCNC(=S)Nc2ccc3c(c2)C(=O)OC32c3ccc(O)cc3Oc3cc(O)ccc32)c(C(F)(F)F)n1`: in experiment [3], the Kd was determined as 0.0489 µM.

As to `O=C(O)Cc1cccc(OCCCN(Cc2cccc(C(F)(F)F)c2Cl)CC(c2ccccc2)c2ccccc2)c1`, in experiment [2], the concentration for a half-maximal effect (EC50) is 0.289 µM. For the same compound, the Ki in experiment [1] is 0.0022 µM.

With `CCCCOC(=O)c1ccc(O)cc1` [BUTYLPARABEN], in experiment [1], the Ki turned out to be 66 µM.

As for `Fc1ccc(-c2c3cccc(C(F)(F)F)c3nn2Cc2ccc(F)cc2Cl)cc1` [LXR-623], the Ki in experiment [1] was 0.0142 µM.

Regarding `Oc1ccc(Cl)cc1` [PARACHLOROPHENOL], in experiment [2], the half-maximal effective concentration (EC50) came out at 514 µM. The inhibitory constant (Ki) in experiment [1] was 169 µM.

Consider `N#CC[C@H](C1CCCC1)n1cc(-c2ncnc3[nH]ccc23)cn1` [RUXOLITINIB], for which the Ki in experiment [1] was found to be 45 µM.

For orientation: Ki means the equilibrium dissociation constant of an inhibitor or competing ligand from its target. As usually defined, the EC50 is the concentration at which the effect is half-maximal. As a reminder, the Kd is the constant that tells how readily two partners part at equilibrium.
